Tests used:
[1] = release profile of encapsulated agent from chitosan particles (atomic absorption spectrometry); type: physicochemical; conditions: over 60 hours; particles with average diameter 500 to 2000 nm; detection by AAS
Excerpt: FIG. 1 is a graph showing the release profile of one embodiment of particles having an average diameter in the range of 500 to 2000 nm which may be included within a multi-layered device according to embodiments of the present invention. […] Cisplatin was used for this experiment due to its use in the treatment of oral cancer and its ease of detection via atomic absorption spectrometry (AAS).
FIG. 1 is a graph showing the release profile of example particles having an average diameter in the range of 500 to 2000 nm. […] Cisplatin was used for this experiment due to its use in the treatment of oral cancer and its ease of detection via atomic absorption spectrometry (AAS).

[2] = permeation of fluorescent dye from two-layer device into buccal tissue (fluorescence microscopy); type: in vitro ADME; conditions: lamb buccal tissue, multi-layer device
Excerpt: FIG. 2 is an image of an example multi-layered device according to example embodiments of the present invention. The device features two layers: one top layer including fluorescein isothiocyanate (FITC), a fluorescent dye which fluoresces green when examined under a fluorescent microscope, and one bottom layer including cyanine 5 (Cy5), a fluorescent dye which fluoresces red when examined under a fluorescent microscope.
FIGS. 5A-5C show three images taken from lamb buccal tissue at different time points.
In another representative embodiment, a multi-layered device may be used for the delivery of multiple agents over a prolonged period of time (FIG. 4, FIG. 5). If the example of mucositis is again used, multiple layers may include a pain mitigator in free form, a pain mitigator encapsulated within particles and an agent for the treatment of mucositis encapsulated within particles. The initial freeform layer is able to provide immediate pain relief, and the subsequent particle-encapsulated layers are capable of delivering particles beneath the tissue, where they further release their agents over a period of days, providing longer-term pain relief and treatment. FIG. 4 and FIG. 5 illustrate this effect. Fluorescence was used in order to provide detection. […]

With `N.N.[Cl][Pt][Cl]` [cisplatin] the “cisplatin released from particles” value [1] was 45%.

For fluorescein isothiocyanate [FITC], the permeation into tissue ([2]; after 30 minutes) was “beginning to permeate the tissue” and the permeation into tissue ([2]; after 1 hour) was “permeating deeper into the tissue”.

— patent US11938228B2, “Particle-based multi-layer therapeutic delivery device and method” (Privo Technologies, Inc., priority 2017, dated 2024)
